Experimental data taken from patent US12036236B2, “Antimicrobial guanidinium macromolecules with bacteria targeting moieties” (International Business Machines Corporation, priority 2018, dated 2024).

How the values were obtained:
[1] = system: A. baumannii 4123; test: Effective dose (ED50, ED95) in bacteremia infection mouse model; format: in vivo; details: Acinetobacter baumannii, 4123, ip; immunosuppressed mice, intraperitoneal 1.0 and 6.0 hours after infection, survival 7.0 days, BLISS method; read-out: ED50 (effective dose that cures 50% infected mice)
Protocol: In this regard, immunosuppressed mice were used for the following in vivo studies. Immunosuppression was induced by intraperitoneal injection of 200 mg/kg cyclophosphamide 4 days prior to infection. The mice were anesthetized by intraperitoneal injection of 1% pentobarbital (40 mg/kg, sigma). The mice were then infected with A. baumannii 4123 to determine the minimum lethal dose for subsequent effective dose and efficacy testing. Briefly, overnight cultures of A. baumannii 4123 were harvested and suspended in phosphate-buffered saline (PBS). Subsequently, the cyclophosphamide-pretreated mice were injected with 0.3 mL of the bacterial suspension at designated doses (e.g., 1.0×10^8, 2.5×10^8, 5×10^8, 1.0×10^9, 2.0×10^9 CFU/mL, six mice per group) via the tail vein. The minimum lethal dose, the lowest concentration sufficient to cause 100% mortality, was determined from the survival rate of mice at 48 hours post-infection by the BLISS method.
Firstly, a bacterial suspension with the minimum lethal dose (0.3 mL) was introduced to the above described cyclophosphamide-pretreated mice via the tail vein. […] The number of surviving mice in each group was recorded for 7.0 days to estimate ED50 and ED95 via the BLISS method.

[2] = system: clinically isolated MDR K. pneumoniae, E. coli, A. baumannii and MRSA strains; test: MIC by broth microdilution against different types and strains of clinically isolated MDR bacteria; format: cell-based; details: MIC comparison
Protocol: To facilitate comparison, an antimicrobial guanidinium-based macromolecule without a sugar functional group (identified herein as Dp20), as well as strong antibiotics (including imipenem, vancomycin, ceftriaxone, and gentamycin), were also tested against the clinically isolated pathogens. The MDR clinical isolates were obtained from patients' blood and phlegm. All isolates were identified by routine laboratory methods and stored in 20% (v/v) glycerol at 80° C.
In accordance with the broth microdilution method, MDR microbes including one or more strains of K. pneumoniae, E. coli, A. baumannii, and MRSA were harvested in midexponential growth phase after grown overnight in Mueller-Hinton (MH) agar plates at 37° C. The antimicrobial agents were prepared in Mueller Hinton broth (MHB) at various concentrations. The bacteria suspensions were then diluted with phosphate-buffer saline (PBS), with a potential of Hydrogen (PH) of 7.4) to adjust the turbidity approximately to the Standard McFarland 0.6, which corresponds to the concentration of 1×10^8 colony-forming unit (CFU) per mL (CFU/mL, after which the bacteria suspension was further diluted by 100-fold with MHB (1×10^6 CFU/mL). Subsequently, equal volumes (100 μL) of bacterial suspension and agent solution prepared previously were mixed in each well of a 96-well plate and incubated for 18 hours at 37° C. […]

Compound: C[C@@H](O)[C@H]1C(=O)N2C(C(=O)O)=C(SCCN=CN)C[C@H]12 [imipenem]
- ED50 [1]: 6.1 mg/kg

Compound: CN[C@H](CC(C)C)C(=O)N[C@H]1C(=O)N[C@@H](CC(N)=O)C(=O)N[C@H]2C(=O)N[C@H]3C(=O)N[C@H](C(=O)N[C@H](C(=O)O)c4cc(O)cc(O)c4-c4cc3ccc4O)[C@H](O)c3ccc(c(Cl)c3)Oc3cc2cc(c3O[C@@H]2O[C@H](CO)[C@@H](O)[C@H](O)[C@H]2O[C@H]2C[C@](C)(N)[C@H](O)[C@H](C)O2)Oc2ccc(cc2Cl)[C@H]1O [vancomycin]
- spectrum of efficacy (Gram-negative / Gram-positive strains) [2]: only demonstrated efficacy Gram-positive strains
